Experimental data reported in US9795140B2, “Molecules having pesticidal utility, and intermediates, compositions, and processes, related thereto” (priority 2015, dated 2017).

How the values were obtained:
Assay type in all cases: in vivo
[1] = test system: Yellow Fever Mosquito (Aedes aegypti, AEDSAE); experiment: Bioassay on Yellow Fever Mosquito (YFM) larvae, 96-well plate; conditions: about 1 day-old larvae, room temperature, 3 days, scored on mortality
In short: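 Each well was scored for mortality after 3 days at room temperature under a non-evaporative lid. Test molecules came from DMSO masters (4000 ppm stock) diluted with water/acetone 90:10 and dispensed into six replicate plates, which were then infested with roughly 1-day-old larvae in liver-powder water.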

[2] = test system: Cabbage Looper (Trichoplusia ni, TRIPNI); experiment: Bioassay on Cabbage Looper (CL), 128-well diet tray assay; conditions: 168 h, 50 μg/cm^2 on artificial diet, second instar larvae, 25° C., five to seven days, average of eight wells, read-out: CL % Control (or Mortality) rating
In short: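 Second-instar T. ni larvae (one to five per well) were placed on artificial diet treated with 50 μg/cm^2 compound, applied in 90:10 acetone-water and dried. Trays were held five to seven days at 25 °C under 14:10 light-dark. Percent mortality per well was averaged over eight wells.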

[3] = test system: Beet Armyworm (Spodoptera exigua, LAPHEG); experiment: Bioassay on Beet Armyworm (BAW), 128-well diet tray assay; conditions: 168 h, 50 μg/cm^2 on artificial diet, second instar larvae, 25° C., five to seven days, average of eight wells, read-out: BAW % Control (or Mortality) rating
In short: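 Second-instar larvae, one to five per well, placed on artificial diet surface-treated with 50 μg/cm^2 compound applied in 90:10 acetone-water and dried. Held 5–7 days at 25° C., 14:10 light-dark. Percent mortality recorded per well and averaged over eight wells.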

[4] = test system: Green Peach Aphid (Myzus persicae, MYZUPE); experiment: Bioassay on Green Peach Aphid (GPA), foliar spray on cabbage seedlings; conditions: 72 h, 200 ppm spray on infested cabbage seedlings, three days, Abbott corrected % control, read-out: GPA % Control (or Mortality) rating
Protocol: Certain molecules disclosed in this document were tested against GPA using procedures described in the following example. In the reporting of the results, the “GPA & YFM Rating Table” was used (See Table Section).
Cabbage seedlings grown in 3-inch pots, with 2-3 small (3-5 cm) true leaves, were used as test substrate. The seedlings were infested with 20-50 GPA (wingless adult and nymph stages) one day prior to chemical application. Four pots with individual seedlings were used for each treatment. Test molecules (2 mg) were dissolved in 2 mL of acetone/methanol (1:1) solvent, forming stock solutions of 1000 ppm test molecule. The stock solutions were diluted 5× with 0.025% Tween 20 in water to obtain the solution at 200 ppm test molecule. A hand-held aspirator-type sprayer was used for spraying a solution to both sides of […] leaves until runoff. Reference plants (solvent check) were sprayed with the diluent only containing 20% by volume of acetone/methanol (1:1) solvent. Treated plants were held in a holding room for three days at approximately 25° C. and ambient relative humidity (RH) prior to grading. Evaluation was conducted by counting the number of live aphids per plant under a microscope. Percent control was measured using Abbott's correction formula (W. S. Abbott, “A Method of Computing the Effectiveness of an Insecticide” J. Econ. Entomol. 18 (1925), pp. 265-267) as follows. Corrected % Control=100*(X−Y)/X where X=No. of live aphids on solvent check plants and Y=No. of live aphids on treated plants. The results are indicated in the table entitled “Table ABC: Biological Results” (See Table Section).

In the case of CNC(=O)c1cc(NC(=O)[C@H]2[C@H](c3cc(Cl)cc(Cl)c3)C2(Cl)Cl)ccc1C(F)(F)F (relative stereo) [F2, trans-5-(2,2-Dichloro-3-(3,5-dichlorophenyl)cyclopropane-1-carboxamido)-N-methyl-2-(trifluoromethyl)benzamide], the “YFM % Control (or Mortality) rating” value [1] is reported as “A (80-100)”, the mortality at 50 µg/cm2 [2] is reported as 50 to 100% and the mortality at 50 µg/cm2 [3] is reported as 50 to 100%. It also gave a mortality at 200 ppm [4] of 0 to 80%.
In the case of O=C(NCC(F)(F)F)c1cc(NC(=O)[C@H]2[C@H](c3cc(Cl)cc(Cl)c3)C2(Cl)Cl)ccc1Cl (relative stereo) [F4, trans-2-Chloro-5-(2,2-dichloro-3-(3,5-dichlorophenyl)cyclopropane-1-carboxamido)-N-(2,2,2-trifluoroethyl)benzamide], the “YFM % Control (or Mortality) rating” value [1] is reported as “A (80-100)”, the mortality at 50 µg/cm2 [2] is reported as 50 to 100% and the mortality at 50 µg/cm2 [3] is reported as 50 to 100%. For the same molecule, the mortality at 200 ppm [4] was 80 to 100%.
For O=C(NCc1cccnc1)c1cc(NC(=O)[C@H]2[C@H](c3cc(Cl)cc(Cl)c3)C2(Cl)Cl)ccc1Cl (relative stereo) [F6, trans-2-Chloro-5-(2,2-dichloro-3-(3,5-dichlorophenyl)cyclopropane-1-carboxamido)-N-(pyridin-3-ylmethyl)benzamide], the “YFM % Control (or Mortality) rating” value [1] was “A (80-100)”, the mortality at 50 µg/cm2 [2] was 50 to 100% and the mortality at 50 µg/cm2 [3] was 50 to 100%. For the same molecule, the mortality at 200 ppm [4] was 0 to 80%.
O=C(NCc1ccncc1)c1cc(NC(=O)[C@H]2[C@H](c3cc(Cl)cc(Cl)c3)C2(Cl)Cl)ccc1Cl (relative stereo) [F12, trans-2-Chloro-5-(2,2-dichloro-3-(3,5-dichlorophenyl)cyclopropane-1-carboxamido)-N-(pyridin-4-ylmethyl)benzamide] was tested, and the “YFM % Control (or Mortality) rating” value [1] was “A (80-100)”, the mortality at 50 µg/cm2 [2] was 50 to 100% and the mortality at 50 µg/cm2 [3] was 50 to 100%. For the same molecule, the mortality at 200 ppm [4] was 0 to 80%.
O=C(NCc1ccncc1)c1cc(NC(=O)[C@H]2[C@H](c3cc(Cl)c(Cl)c(Cl)c3)C2(Cl)Cl)ccc1Cl (relative stereo) [F13, trans-2-Chloro-5-(2,2-dichloro-3-(3,4,5-trichlorophenyl)cyclopropane-1-carboxamido)-N-(pyridin-4-ylmethyl)benzamide] was tested, and the “YFM % Control (or Mortality) rating” value [1] was “A (80-100)”, the mortality at 50 µg/cm2 [2] was 50 to 100% and the mortality at 50 µg/cm2 [3] was 50 to 100%. The mortality at 200 ppm [4] was 0 to 80%.
In the case of C=CCONC(=O)c1cc(NC(=O)[C@H]2[C@H](c3ccc(Cl)c(Cl)c3)C2(Cl)Cl)ccc1Cl (relative stereo) [F14, trans-N-(Allyloxy)-2-chloro-5-(2,2-dichloro-3-(3,4-dichlorophenyl)cyclopropane-1-carboxamido)benzamide], the “YFM % Control (or Mortality) rating” value [1] is reported as “A (80-100)”, the mortality at 50 µg/cm2 [2] is reported as 50 to 100% and the mortality at 50 µg/cm2 [3] is reported as 50 to 100%. The mortality at 200 ppm [4] was 0 to 80%.
For O=C(NCc1ccccc1)c1cc(NC(=O)[C@H]2[C@H](c3cc(Cl)cc(Cl)c3)C2(Cl)Cl)ccc1Cl (relative stereo) [F27, trans-N-benzyl-2-chloro-5-(2,2-dichloro-3-(3,5-dichlorophenyl)cyclopropane-1-carboxamido)benzamide], the “YFM % Control (or Mortality) rating” value [1] was “A (80-100)”, the mortality at 50 µg/cm2 [2] was 50 to 100% and the mortality at 50 µg/cm2 [3] was 50 to 100%. For the same molecule, the mortality at 200 ppm [4] was 0 to 80%.
In the case of O=C(NCc1ccc(F)cc1)c1cc(NC(=O)[C@H]2[C@H](c3cc(Cl)cc(Cl)c3)C2(Cl)Cl)ccc1Cl (relative stereo) [F28, trans-2-Chloro-5-(2,2-dichloro-3-(3,5-dichlorophenyl)cyclopropane-1-carboxamido)-N-(4-fluorobenzyl)benzamide], the “YFM % Control (or Mortality) rating” value [1] is reported as “A (80-100)”, the mortality at 50 µg/cm2 [2] is reported as 50 to 100% and the mortality at 50 µg/cm2 [3] is reported as 50 to 100%. For the same molecule, the mortality at 200 ppm [4] was 80 to 100%.
With O=C(NOc1ccccc1)c1cc(NC(=O)[C@H]2[C@H](c3cc(Cl)cc(Cl)c3)C2(Cl)Cl)ccc1Cl (relative stereo) [F29, trans-2-chloro-5-(2,2-dichloro-3-(3,5-dichlorophenyl)cyclopropane-1-carboxamido)-N-phenoxybenzamide] the “YFM % Control (or Mortality) rating” value [1] was “A (80-100)”, the mortality at 50 µg/cm2 [2] was 0% and the mortality at 50 µg/cm2 [3] was 0%. The mortality at 200 ppm [4] was 0 to 80%.
CC(C)CNC(=O)c1cc(NC(=O)[C@H]2[C@H](c3cc(Cl)cc(Cl)c3)C2(Cl)Cl)ccc1Cl (relative stereo) [F30, trans-2-chloro-5-(2,2-dichloro-3-(3,5-dichlorophenyl)cyclopropane-1-carboxamido)-N-isobutylbenzamide] was tested, and the “YFM % Control (or Mortality) rating” value [1] was “A (80-100)”, the mortality at 50 µg/cm2 [2] was 50 to 100% and the mortality at 50 µg/cm2 [3] was 50 to 100%. The mortality at 200 ppm [4] was 80 to 100%.
In the case of CCCCCCNC(=O)c1cc(NC(=O)[C@H]2[C@H](c3cc(Cl)cc(Cl)c3)C2(Cl)Cl)ccc1Cl (relative stereo) [F31, trans-2-Chloro-5-(2,2-dichloro-3-(3,5-dichlorophenyl)cyclopropane-1-carboxamido)-N-hexylbenzamide], the “YFM % Control (or Mortality) rating” value [1] is reported as “B (More than 0-Less than 80)”, the mortality at 50 µg/cm2 [2] is reported as 50 to 100% and the mortality at 50 µg/cm2 [3] is reported as 50 to 100%. It also gave a mortality at 200 ppm [4] of 0 to 80%.
In the case of O=C(NCc1ccc(F)c(F)c1)c1cc(NC(=O)[C@H]2[C@H](c3cc(Cl)cc(Cl)c3)C2(Cl)Cl)ccc1Cl (relative stereo) [F32, trans-2-Chloro-5-(2,2-dichloro-3-(3,5-dichlorophenyl)cyclopropane-1-carboxamido)-N-(3,4-difluorobenzyl)benzamide], the “YFM % Control (or Mortality) rating” value [1] is reported as “A (80-100)”, the mortality at 50 µg/cm2 [2] is reported as 50 to 100% and the mortality at 50 µg/cm2 [3] is reported as 50 to 100%. The mortality at 200 ppm [4] was 0 to 80%.
O=C(NCCOCC1CC1)c1cc(NC(=O)[C@H]2[C@H](c3cc(Cl)cc(Cl)c3)C2(Cl)Cl)ccc1Cl (relative stereo) [F43, trans-2-Chloro-N-(2-(cyclopropylmethoxy)ethyl)-5-(2,2-dichloro-3-(3,5-dichlorophenyl)cyclopropane-1-carboxamido)benzamide] was tested, and the mortality at 50 µg/cm2 [2] was 50 to 100%, the mortality at 50 µg/cm2 [3] was 50 to 100% and the mortality at 200 ppm [4] was 80 to 100%.
O=C(NOCc1ccc(F)cc1)c1cc(NC(=O)C2C(c3cc(Cl)c(Cl)c(Cl)c3)C2(Cl)Cl)ccc1Cl (stereo not drawn) [F18, trans-N-2-Chloro-5-(2,2-dichloro-3-(3,4,5-trichlorophenyl)cyclopropane-1-carboxamido)-N-((4-fluorobenzyl)oxy)benzamide] gave a mortality at 50 µg/cm2 [2] of 50 to 100%, a mortality at 50 µg/cm2 [3] of 50 to 100% and a mortality at 200 ppm [4] of 0 to 80%.
For O=C(NCCC1CC1)c1cc(NC(=O)C2C(c3ccc(Cl)c(Cl)c3)C2(Cl)Cl)ccc1Cl (stereo not drawn) [F25, trans-N-2-Chloro-N-(2-cyclopropylethyl)-5-(2,2-dichloro-3-(3,4-dichlorophenyl)cyclopropane-1-carboxamido)benzamide], the “YFM % Control (or Mortality) rating” value [1] was “A (80-100)”, the mortality at 50 µg/cm2 [2] was 50 to 100% and the mortality at 50 µg/cm2 [3] was 50 to 100%.
With O=C(NCCC1CC1)c1cc(NC(=O)C2C(c3cc(Cl)c(Cl)c(Cl)c3)C2(Cl)Cl)ccc1Cl (stereo not drawn) [F26, trans-N-2-Chloro-N-(2-cyclopropylethyl)-5-(2,2-dichloro-3-(3,4,5-trichlorophenyl)cyclopropane-1-carboxamido)benzamide] the “YFM % Control (or Mortality) rating” value [1] was “A (80-100)”, the mortality at 50 µg/cm2 [2] was 50 to 100% and the mortality at 50 µg/cm2 [3] was 50 to 100%.
COc1c(F)cc(C2C(C(=O)Nc3ccc(Cl)c(C(=O)NCC(F)(F)F)c3)C2(Cl)Cl)cc1F (stereo not drawn) [F125, 2-Chloro-5-trans-(2,2-dichloro-3-(3,5-difluoro-4-methoxyphenyl)cyclopropane-1-carboxamido)-N-(2,2,2-trifluoroethyl)benzamide] was tested, and the “YFM % Control (or Mortality) rating” value [1] was “A (80-100)”, the mortality at 50 µg/cm2 [2] was 50 to 100% and the mortality at 50 µg/cm2 [3] was 50 to 100%.
For O=C(NCC(F)(F)F)c1cc(NC(=O)C2C(c3cc(F)c(F)c(F)c3)C2(Cl)Cl)ccc1Cl (stereo not drawn) [F126, 2-Chloro-5-trans-(2,2-dichloro-3-(3,4,5-trifluorophenyl)cyclopropane-1-carboxamido)-N-(2,2,2-trifluoroethyl)benzamide], the “YFM % Control (or Mortality) rating” value [1] was “A (80-100)”, the mortality at 50 µg/cm2 [2] was 50 to 100% and the mortality at 50 µg/cm2 [3] was 50 to 100%.
